Assay results from patent publication US20110184188A1, “Insecticidal Benzenedicarboxamide Derivative” (priority 2008, published 2011).

experiment: logP(acid) by reverse phase (C18) chromatography at pH 2.3; assay type: physicochemical; details: reverse phase (C18) chromatography at pH 2.3

| logP (acid) | Physical property logP (acid) | Compound |
| --- | --- | --- |
| logP (acid) 3.88 |  | CSC[C@H](C)NC(=O)c1c(Cl)ccc(Cl)c1C(=O)Nc1ccc(Cn2nc(C(F)(F)F)cc2C(F)(F)F)cc1C [11-21] |
| 3.21 |  | CSC[C@H](C)NC(=O)c1c(Cl)cccc1C(=O)Nc1ccc(Cn2nc(C(F)F)c(Cl)c2C(F)F)nc1C [13-27] |
| logP (acid) 3.28 |  | CSC[C@H](C)NC(=O)c1c(Br)cccc1C(=O)Nc1ccc(Cn2nc(C(F)F)c(Cl)c2C(F)F)nc1C [13-126] |
|  | logP (acid) 4.91 | CCCCCSc1nc(C(F)(F)F)nn1Cc1ccc(NC(=O)c2cccc(Cl)c2C(=O)NC(C)CSC)c(C)c1 (centres unmarked) [14-40] |
| 3.20 |  | CSC[C@H](C)NC(=O)c1c(Cl)cccc1C(=O)Nc1ccc(Cn2nc(C(F)F)c(Br)c2C(F)F)nc1C [13-28] |
| logP (acid) 2.90 |  | COc1ccc(Br)c(C(=O)Nc2ccc(Cn3nc(C(F)(F)C(F)(F)F)cc3C(F)(F)F)nc2C)c1C(=O)N[C@@H](C)C[S+](C)[O-] (some centres unmarked) [11-20] |
| logP (acid) 3.61 |  | Cc1cc(Cn2nc(C(F)(F)C(F)(F)F)nc2C(F)(F)F)ccc1NC(=O)c1cc(Cl)cc(Cl)c1C(=O)N[C@@H](C)CS(C)(=O)=O [10-12] |
| logP (acid) 2.83 |  | Cc1nc(Cn2nc(C(F)(F)F)cc2C(F)(F)F)ccc1NC(=O)c1cc(Cl)cc(Cl)c1C(=O)N[C@@H](C)C[S+](C)[O-] (some centres unmarked) [10-2] |
| logP (acid) 3.63 |  | COc1ccc(Br)c(C(=O)Nc2ccc(Cn3nc(C(F)(F)F)cc3C(F)(F)F)nc2C)c1C(=O)N[C@@H](C)CSC [11-16] |
| logP (acid) 3.34 |  | CSC[C@H](C)NC(=O)c1c(I)cccc1C(=O)Nc1ccc(Cn2nc(C(F)F)c(Cl)c2C(F)F)nc1C [13-145] |
|  | logP (acid) 3.33 | CSCC(C)NC(=O)c1c(Cl)cccc1C(=O)Nc1ccc(Cn2nc(C(F)(F)C(F)F)nc2C(F)(F)C(F)F)nc1C (centres unmarked) [14-31] |
| logP (acid) 3.05 |  | Cc1nc(Cn2nc(C(F)(F)F)cc2C(F)(F)F)ccc1NC(=O)c1c(Cl)ccc(Cl)c1C(=O)N[C@@H](C)CS(C)(=O)=O [11-6] |
| logP (acid) 3.89 |  | CSC[C@H](C)NC(=O)c1c(Cl)ccc(Br)c1C(=O)Nc1ccc(Cn2nc(C(F)(F)F)cc2C(F)(F)F)nc1C [11-13] |

| Compound | logP (acid) | Physical property logP (acid) |
| --- | --- | --- |
| Cc1nc(Cn2nc(C(F)(F)C(F)(F)F)cc2C(F)(F)F)ccc1NC(=O)c1cccc(Br)c1C(=O)N[C@@H](C)CS(C)(=O)=O [13-187] | logP (acid) 3.19 |  |
| Cc1nc(Cn2nc(C(F)F)c(Cl)c2C(F)F)ccc1NC(=O)c1cccc(Cl)c1C(=O)NC(C)C[S+](C)[O-] (mixture of isomers) [13-58] | 2.13 |  |
| CSC[C@H](C)NC(=O)c1c(I)cccc1C(=O)Nc1cnc(Cn2nc(C(F)(F)F)cc2C(F)(F)F)cc1C [13-181] | logP (acid) 3.67 |  |
| Cc1nc(Cn2nc(C(F)(F)C(F)(F)F)cc2C(F)(F)F)ccc1NC(=O)c1cccc(Br)c1C(=O)NC(C)C[S+](C)[O-] (mixture of isomers) [13-188] | logP (acid) 2.81 |  |
| Cc1nc(Cn2nc(C(F)(F)C(F)(F)F)cc2C(F)(F)F)ccc1NC(=O)c1cccc(I)c1C(=O)N[C@@H](C)CS(C)(=O)=O [13-189] | logP (acid) 3.27 |  |

same assay, conditions: reverse phase (C18) chromatography at pH2.3, 0.1% phosphoric acid aqueous solution / acetonitrile, linear gradient 10-95% acetonitrile

| logP (acid) | Compound |
| --- | --- |
| logP (acid) 2.63 | Cc1cc(Cn2nc(C(F)(F)F)nc2C(F)(F)F)c(F)cc1NC(=O)c1cccc(Cl)c1C(=O)N[C@@H](C)C[S+](C)[O-] (some centres unmarked) [7-8] |
| logP (acid) 2.68 | Cc1cc(Cn2nc(C(F)(F)F)nc2C(F)(F)F)c(F)cc1NC(=O)c1cccc(Br)c1C(=O)N[C@@H](C)C[S+](C)[O-] (some centres unmarked) [7-14] |
| logP (acid) 4.07 | CSC[C@H](C)NC(=O)c1c(Br)cccc1C(=O)Nc1cc(F)c(Cn2nc(C(F)(F)F)nc2C(F)(F)F)cc1C [7-13] |
| logP (acid) 3.08 | Cc1cc(Cn2nc(C(F)(F)F)nc2C(F)(F)F)c(F)cc1NC(=O)c1cccc(Br)c1C(=O)N[C@@H](C)CS(C)(=O)=O [7-15] |

same assay, conditions: reverse phase (C18) chromatography column, pH 2.3; reverse phase (C18) chromatography, pH2.3, 0.1% phosphoric acid / acetonitrile gradient 10-95%; read-out: logP (acid)

| chromatographic logP | Compound |
| --- | --- |
| 3.64 | Cc1cc(Cn2nc(C(F)(F)F)cc2C(F)(F)F)ncc1[N+](=O)[O-] [SYNTHESIS EXAMPLE 68-2] |
| 4.68 | Cc1nc(Cn2nc(C(F)(F)C(F)(F)F)cc2C(F)(F)C(F)(F)F)ccc1[N+](=O)[O-] [SYNTHESIS EXAMPLE 81-1] |

same assay, conditions: reverse phase (C18) chromatography, pH 2.3

| logP (acid) | Compound |
| --- | --- |
| logP (acid) 3.79 | Cc1cc(Cn2nc(C(F)(F)C(F)(F)F)nc2C(F)(F)F)ccc1NC(=O)c1cccc(Cl)c1C(=O)NC(C)CC1(C)OCCCO1 (centres unmarked) [14-357] |
| logP (acid) 3.05 | CSC[C@H](C)NC(=O)c1c(Cl)cccc1C(=O)Nc1ccc(Cn2cc(C(=O)NCC(F)(F)F)c(C(F)(F)F)n2)cc1C [13-210] |
| logP (acid) 3.11 | CSC[C@H](C)NC(=O)c1c(Cl)cccc1C(=O)Nc1ccc(Cn2nc(C(F)(F)F)nc2NC(=O)C(F)(F)F)cc1C [14-353] |
| logP (acid) 3.92 | Cc1cc(Cn2nc(C(F)(F)C(F)(F)F)nc2C(F)(F)F)ccc1NC(=O)c1cccc(Br)c1C(=O)NC(C)CC1(C)OCCO1 (centres unmarked) [14-362] |
| logP (acid) 2.79 | CSC[C@H](C)NC(=O)c1c(Cl)cccc1C(=O)Nc1ccc(Cn2nc(C(F)(F)C(F)(F)F)n(N)c2=O)cc1C [14-421] |
| logP (acid) 4.03 | CO/N=C(\C)CC(C)NC(=O)c1c(Br)cccc1C(=O)Nc1ccc(Cn2nc(C(F)(F)C(F)(F)F)nc2C(F)(F)F)cc1C (centres unmarked) [14-363] |
| logP (acid) 2.38 | CSC[C@H](C)NC(=O)c1c(Cl)cccc1C(=O)Nc1ccc(Cn2cnc(C(F)(F)C(F)F)n2)nc1C [14-309] |
| logP (acid) 3.08 | CC(=O)OC[C@H](C)NC(=O)c1c(Cl)cccc1C(=O)Nc1ccc(Cn2nc(C(F)(F)F)nc2C(F)(F)F)cc1C [14-298] |
| logP (acid) 4.06 | Cc1cc(Cn2nc(C(F)(F)C(F)(F)F)nc2C(F)(F)F)ccc1NC(=O)c1cccc(Br)c1C(=O)NC(C)CC1(C)OCCCO1 (centres unmarked) [14-359] |
| logP (acid) 3.46 | CC(=O)CC(C)NC(=O)c1c(Br)cccc1C(=O)Nc1ccc(Cn2nc(C(F)(F)C(F)(F)F)nc2C(F)(F)F)cc1C (centres unmarked) [14-296] |
| logP (acid) 3.4 | CSC[C@H](C)NC(=O)c1c(Cl)cccc1C(=O)Nc1ccc(C(=O)c2cc(C(F)(F)C(F)(F)F)n[nH]2)cc1C [13-229] |
| logP (acid) 3.95 | Cc1cc(Cn2nc(C(F)(F)C(F)(F)F)nc2C(F)(F)F)ccc1NC(=O)c1cccc(I)c1C(=O)NC(C)CC1(C)OCCCO1 (centres unmarked) [14-358] |
| logP (acid) 4.08 | CSC[C@H](C)NC(=O)c1c(Cl)cccc1C(=O)Nc1ccc(Cn2nnc(-c3ccc(C(F)(F)F)cc3)n2)cc1C [14-305] |
| logP (acid) 3.30 | CSC[C@H](C)NC(=O)c1c(C(=O)Nc2ccc(Cn3nc(C(F)(F)F)nc3C(F)(F)F)nc2C)cccc1S(=O)(=O)N(C)C [14-365] |
| logP (acid) 3.71 | CSC[C@H](C)NC(=O)c1c(Cl)cccc1C(=O)Nc1ccc(Cn2nnc(C(F)(F)C(F)(F)C(F)(F)F)n2)nc1C [14-307] |
| logP (acid) 3.84 | CSC[C@H](C)NC(=O)c1c(Br)cncc1C(=O)Nc1ccc(Cn2nc(C(F)(F)C(F)(F)F)nc2C(F)(F)F)cc1C [14-300] |
| logP (acid) 3.50 | CSC[C@H](C)NC(=O)c1c(SC)cccc1C(=O)Nc1ccc(Cn2nc(C(F)(F)C(F)(F)F)cc2C(=O)C(F)(F)F)cc1C [13-325] |
| logP (acid) 3.75 | CSC[C@H](C)NC(=O)c1c(Br)cccc1C(=O)Nc1ccc(Cn2nc(C(F)(F)C(F)(F)F)n(C(F)F)c2=O)cc1C [14-331] |
| logP (acid) 4.33 | CSC[C@H](C)NC(=O)c1c(SC)cccc1C(=O)Nc1ccc(Cn2nc(C(F)(F)C(F)(F)F)nc2C(F)(F)C(F)(F)F)nc1C [14-387] |
| logP (acid) 3.11 | CSC[C@H](C)NC(=O)c1c(I)cccc1C(=O)Nc1ccc(Cn2nc(C(F)(F)C(F)(F)F)n(C(F)F)c2=O)cc1C [14-334] |
| logP (acid) 2.07 | Cc1nc(Cn2nc(C(F)(F)F)nc2C(F)(F)F)ccc1NC(=O)c1cccc(S(C)(=O)=O)c1C(=O)N[C@@H](C)C[S+](C)[O-] (some centres unmarked) [14-366] |

| Compound | logP (acid) |
| --- | --- |
| CSC[C@H](C)NC(=O)c1c(C(=O)Nc2ccc(Cn3cc(C(F)(F)C(F)(F)F)c(C(F)(F)C(F)(F)F)n3)nc2C)cccc1S(C)(=O)=O [13-290] | logP (acid) 3.80 |
| CSc1cccc(C(=O)Nc2ccc(Cn3nc(C(F)(F)C(F)(F)F)cc3C(F)(F)F)nc2C)c1C(=O)N[C@@H](C)C[S+](C)[O-] (some centres unmarked) [13-343] | logP (acid) 2.78 |
| CSC[C@H](C)NC(=O)c1c(C(=O)Nc2ccc(Cn3nc(C(F)(F)F)cc3C(F)(F)F)nc2C)cccc1S(C)(=O)=O [13-286] | logP (acid) 3.21 |
| CSC[C@H](C)NC(=O)c1c(Cl)cccc1C(=O)Nc1ccc(Cn2nc(C(F)(F)C(F)(F)F)cc2C(=O)C(F)(F)F)cc1C [13-220] | logP (acid) 3.52 |

same assay, conditions: reverse phase (C18) chromatography, pH2.3, 0.1% phosphoric acid / acetonitrile gradient 10-95%

| logP (acid) | Compound |
| --- | --- |
| logP (acid) 4.28 | CSC[C@H](C)NC(=O)c1c(Cl)cccc1C(=O)Nc1cc(F)c(C)nc1Cn1nc(C(F)(F)F)cc1C(F)(F)F [3-7] |
| logP (acid) 3.84 | CNC(=O)c1cc(Cl)cc(Cl)c1C(=O)Nc1cc(Cl)ccc1Cn1nc(C(F)(F)F)nc1C(F)(F)F [3-2] |

same assay, conditions: reverse phase (C18) chromatography, pH2.3, 0.1% phosphoric acid aqueous solution / acetonitrile, linear gradient 10-95% acetonitrile

| logP (acid) | Compound |
| --- | --- |
| logP (acid) 3.22 | Cc1cc(Cn2nc(C(F)(F)F)cc2C(F)(F)F)ccc1NC(=O)c1ccc(C(F)(F)F)c(Cl)c1C(=O)N[C@@H](C)CS(C)(=O)=O [9-17] |
| logP (acid) 4.62 | CSC[C@H](C)NC(=O)c1c(C(=O)Nc2ccc(Cn3nc(C(F)(F)F)cc3C(F)(F)F)cc2C)ccc(C(F)(F)F)c1Cl [9-14] |
| logP (acid) 3.36 | Cc1cc(Cn2nc(C(F)(F)C(F)(F)F)nc2C(F)(F)F)ccc1NC(=O)c1ccc(F)c(Br)c1C(=O)N[C@@H](C)CS(C)(=O)=O [9-22] |
| logP (acid) 2.51 | Cc1nc(Cn2nc(C(F)(F)F)cc2C(F)(F)F)ccc1NC(=O)c1ccc(F)c(Br)c1C(=O)N[C@@H](C)C[S+](C)[O-] (some centres unmarked) [9-11] |
| logP (acid) 2.98 | Cc1cc(Cn2nc(C(F)(F)F)nc2C(F)(F)F)ccc1NC(=O)c1ccc(C(F)(F)F)c(Cl)c1C(=O)N[C@@H](C)C[S+](C)[O-] (some centres unmarked) [9-19] |
